Assay results: patent US8334292B1, “Pyrimidine compounds and methods of making and using same” (Cystic Fibrosis Foundation Therapeutics, Inc., priority 2010, dated 2012)

Columns and labels:
ΔF508 CTFR [1] = biological target: T1, ΔF508 CTFR (Homo sapiens, UniProt P13569, DEL508-508); test: Corrector assay, FRT cell electrophysiological (Ussing chamber) assay; type: cell-based; conditions: FRT cells treated 24 hours with 3 μM compound; total change in ISC normalized to 10 μM reference corrector C17
T1 construct: expressed in transfected cells; host or cells: FRT epithelial cells (Fischer rat thyroid)
Description: (§1) For use in the corrector assay, FRT epithelial cell monolayers are grown on Snapwell filter inserts and optionally treated with a compound of invention, vehicle (DMSO) or reference corrector N-(2-(5-chloro-2-methoxyphenylamino)-4′-methyl-4,5′-bithiazol-2′-yl)pivalamide (C17). Cells are exposed to compound, vehicle (negative control) or reference corrector (positive control) in a cell/tissue incubator at 37° C. for 24 hours prior to the assay. The inserts are then transferred to a Physiologic Instruments Ussing chamber (P2302) and superfused with 5 ml of a HEPES buffered physiological saline (HB-PS) as the serosal solution with composition (in mM): NaCl, 137; KCl, 4.0; CaCl2, 1.8; MgCl2, 1; HEPES, 10; Glucose, 10; pH adjusted to 7.4 with NaOH. The mucosal solution will be 5 ml of 10CF—PS with composition (in mM): Na-gluconate, 137; KCl, 4; CaCl2, 1.8; MgCl2, 1; HEPES, 10; Glucose, 10; pH adjusted to 7.4 with N-methyl-D-glucamine to create a transepithelial Cl ion gradient. Transepithelial voltage is clamped to 0 mV and the short circuit current (ISC)—reflecting the net ion (Cl—) transport across the epithelial cell monolayer—is measured using a Physiologic Instruments VCC MC8 epithelial voltage clamp (Physiologic Instruments, Inc., San Diego, Calif.). The assay is carried out at 27° C.
(§2) After acquisition of at least 10 minutes of baseline current, agonists (final concentrations: 10 μM forskolin, 100 μM 3-isobutyl-1-methylxanthine [IBMX] and 20 μM genistein) and antagonist (final concentration: 20 μM CFTRinh-172) will be applied sequentially and cumulatively at ˜10-15 minute intervals to both serosal and mucosal epithelial surfaces. On occasion where a 10-15 min interval is not sufficient for ISC to reach a new steady-state after compound addition, the interval between compound additions may have been extended.
(§3) Agonists are added as 200×-1000× stock solutions to both the serosal and mucosal sides. Transepithelial resistance is monitored every 20 s. In a potentiator assay, appropriate volumes from 10 mM compound stock solution in DMSO are added to the mucosal side (i.e. the 10CF—PS solution containing half chamber) of vehicle treated inserts. Compound is added acutely after activation of CFTR by Forskolin and prior to additions of IBMX, genistein, and CFTRinh-172.
(§4) Corrector efficacy—as given in Table 3—is measured as the total change in ISC (i.e. the difference in ISC before and after addition of all agonists) obtained from cells treated with 3 μM compound of invention and normalized to the total change in ISC obtained from the same batch of cells treated contemporaneously with 10 μM reference corrector C17. Potentiator efficacy—as given in Table 3—is measured as the change in ISC after acute addition of 1 μM compound to the mucosal side of vehicle treated cells divided by the total change in ISC after sequential additions of 1 μM compound, 100 μM IBMX, and 20 μM genistein.

ΔF508 CTFR [2] = biological target: T1, ΔF508 CTFR; test: Potentiator assay, FRT cell electrophysiological (Ussing chamber) assay; type: cell-based; conditions: change in ISC after acute addition of 1 μM compound to mucosal side of vehicle treated FRT cells divided by total change in ISC after 1 μM compound, 100 μM IBMX, 20 μM genistein
Description: as §1, §2, §3, §4

T1 sequence (P13569 with tags, fused parts or gaps DEL508-508): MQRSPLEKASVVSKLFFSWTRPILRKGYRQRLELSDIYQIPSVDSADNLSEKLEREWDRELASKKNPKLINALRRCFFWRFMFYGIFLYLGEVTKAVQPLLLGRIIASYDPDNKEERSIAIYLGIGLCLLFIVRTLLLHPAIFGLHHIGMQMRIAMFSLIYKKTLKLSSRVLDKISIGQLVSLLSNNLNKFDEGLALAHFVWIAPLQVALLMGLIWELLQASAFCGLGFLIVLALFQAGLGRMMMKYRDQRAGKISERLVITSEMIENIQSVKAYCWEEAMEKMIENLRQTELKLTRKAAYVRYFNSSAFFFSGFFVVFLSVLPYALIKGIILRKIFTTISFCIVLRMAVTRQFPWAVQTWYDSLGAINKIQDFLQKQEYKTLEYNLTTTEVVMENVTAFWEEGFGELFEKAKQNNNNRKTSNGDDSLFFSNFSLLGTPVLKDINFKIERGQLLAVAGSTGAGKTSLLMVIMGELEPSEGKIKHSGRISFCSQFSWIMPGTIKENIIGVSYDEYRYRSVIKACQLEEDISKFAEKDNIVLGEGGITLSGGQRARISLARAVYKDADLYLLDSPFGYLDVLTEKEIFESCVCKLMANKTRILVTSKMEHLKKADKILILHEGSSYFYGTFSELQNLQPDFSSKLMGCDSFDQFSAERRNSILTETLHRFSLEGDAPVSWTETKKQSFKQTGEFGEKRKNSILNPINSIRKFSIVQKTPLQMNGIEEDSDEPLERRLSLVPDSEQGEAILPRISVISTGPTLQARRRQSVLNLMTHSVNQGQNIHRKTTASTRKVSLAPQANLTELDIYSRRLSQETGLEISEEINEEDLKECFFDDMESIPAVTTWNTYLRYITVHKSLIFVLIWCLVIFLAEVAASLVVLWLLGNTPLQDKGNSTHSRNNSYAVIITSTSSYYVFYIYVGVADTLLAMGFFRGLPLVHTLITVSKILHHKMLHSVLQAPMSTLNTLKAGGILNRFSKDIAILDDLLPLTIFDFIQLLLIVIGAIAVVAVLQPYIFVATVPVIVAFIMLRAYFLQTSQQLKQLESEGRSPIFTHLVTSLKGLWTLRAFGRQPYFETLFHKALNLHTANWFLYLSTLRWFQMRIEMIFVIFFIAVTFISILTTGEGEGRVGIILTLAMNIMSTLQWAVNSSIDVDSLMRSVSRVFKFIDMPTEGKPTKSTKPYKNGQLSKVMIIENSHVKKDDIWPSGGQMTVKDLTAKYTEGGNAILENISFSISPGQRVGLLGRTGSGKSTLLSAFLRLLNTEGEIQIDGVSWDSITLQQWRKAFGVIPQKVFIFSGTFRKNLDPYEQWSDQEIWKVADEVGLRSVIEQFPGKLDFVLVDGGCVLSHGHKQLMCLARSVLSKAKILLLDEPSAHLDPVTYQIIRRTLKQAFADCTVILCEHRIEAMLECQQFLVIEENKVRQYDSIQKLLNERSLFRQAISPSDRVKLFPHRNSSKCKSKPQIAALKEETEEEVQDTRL

SMILES	Corrector Efficacy (ΔF508 CTFR [1])	Potentiator Efficacy (ΔF508 CTFR [2])
CC1CCC(Nc2ncc(-c3ccc(OC4CCN(C(=O)N(C)C)C4)cc3)c(O[C@@H]3CCOC3)n2)CC1 (stereo partly drawn) [Example 112, N,N-dimethyl-3-(4-(2-((1s,4S)-4-methylcyclohexylamino)-4-((R)-tetrahydrofuran-3-yloxy)pyrimidin-5-yl)phenoxy)pyrrolidine-1-carboxamide]	++ (++=0.3-0.6)	+ (+=<0.1)
CN(C)S(=O)(=O)N1CC(Oc2nc(N[C@H]3CC[C@@H](C)CC3)ncc2-c2ccc(N3CCOCC3)cc2)C1 [Example 1, N,N-dimethyl-3-(2-((1s,4s)-4-methylcyclohexylamino)-5-(4-morpholinophenyl)-pyrimidin-4-yloxy)azetidine-1-sulfonamide]	+++ (+++=>0.6)	++ (++=0.1-0.25)
CC1CCC(Nc2ncc(-c3ccc(O[C@H]4CCOC4)cc3)c(OC3CN(S(=O)(=O)N(C)C)C3)n2)CC1 (stereo partly drawn) [Example 214, N,N-dimethyl-3-(2-((1s,4s)-4-methylcyclohexylamino)-5-(4-((S)-tetrahydrofuran-3-yloxy)phenyl)pyrimidin-4-yloxy)azetidine-1-sulfonamide]	+++ (+++=>0.6)	+ (+=<0.1)
CS(=O)(=O)N1CC[C@@H](COc2nc(N[C@H]3CC[C@@H](C)CC3)ncc2-c2ccc(N3CCOCC3)cc2)C1 [Example 78]	++ (++=0.3-0.6)	+ (+=<0.1)
CC1CCCC(C)C1Nc1ncc(-c2ccc(O[C@H]3CCOC3)cc2)c(O[C@@H]2CCOC2)n1 (stereo partly drawn) [Example 170, N-(2,6-dimethylcyclohexyl)-4-((R)-tetrahydrofuran-3-yloxy)-5-(4-((S)-tetrahydrofuran-3-yloxy)phenyl)pyrimidin-2-amine]	+++ (+++=>0.6)	+ (+=<0.1)
CC1CCC(Nc2ncc(-c3ccc(O[C@H]4CCOC4)cc3)c(OC3CCN(S(C)(=O)=O)CC3)n2)CC1 (stereo partly drawn) [Example 152, N-((1s,4s)-4-methylcyclohexyl)-4-(1-(methylsulfonyl)piperidin-4-yloxy)-5-(4-((S)-tetrahydrofuran-3-yloxy)phenyl)pyrimidin-2-amine]	+++ (+++=>0.6)	+++ (+++=>0.25)
COCCc1ccc(-c2cnc(N[C@H]3CC[C@@H](C)CC3)nc2OC2CCN(C(=O)OC)CC2)cc1 [Example 206, methyl 4-(5-(4-(2-methoxyethyl)phenyl)-2-((1s,4s)-4-methylcyclohexylamino)pyrimidin-4-yloxy)piperidine-1-carboxylate]	++ (++=0.3-0.6)	+ (+=<0.1)
C[C@H]1CC[C@@H](Nc2ncc(-c3ccc(O[C@H]4CCOC4)cc3)c(O[C@@H]3CCOC3)n2)CC1.Cl [Example 6, 4-((R)-tetrahydrofuran-3-yloxy)-5-(4-((S)-tetrahydrofuran-3-yloxy)phenyl)-N-(cis-4-methylcyclohexyl)pyrimidin-2-amine hydrochloride salt]	++ (++=0.3-0.6)	++ (++=0.1-0.25)
CS(=O)(=O)N1CC(COc2nc(N[C@H]3CC[C@@H](C)CC3)ncc2-c2ccc(N3CCOCC3)cc2)C1 [Example 80, N-((1s,4s)-4-methylcyclohexyl)-4-((1-(methylsulfonyl)azetidin-3-yl)methoxy)-5-(4-morpholinophenyl)pyrimidin-2-amine]	++ (++=0.3-0.6)	+++ (+++=>0.25)
COCCOc1ccc(-c2cnc(N[C@H]3CC[C@@H](C)CC3)nc2OC2CN(S(C)(=O)=O)C2)cc1 [Example 153, 5-(4-(2-methoxyethoxy)phenyl)-N-((1s,4s)-4-methylcyclohexyl)-4-(1-(methylsulfonyl)azetidin-3-yloxy)pyrimidin-2-amine]	++ (++=0.3-0.6)	+ (+=<0.1)
CC1CCC(Nc2ncc(-c3ccc(O[C@H]4CCOC4)cc3)c(OC3CN(S(=O)(=O)C4CC4)C3)n2)CC1 (stereo partly drawn) [Example 215, 4-(1-(cyclopropylsulfonyl)azetidin-3-yloxy)-N-((1s,4s)-4-methylcyclohexyl)-5-(4-((S)-tetrahydrofuran-3-yloxy)phenyl)pyrimidin-2-amine]	+++ (+++=>0.6)	+++ (+++=>0.25)
CC1CCC(Nc2ncc(-c3ccc(O[C@@H]4CCOC4)cc3)c(OC3CN(S(=O)(=O)N(C)C)C3)n2)CC1 (stereo partly drawn) [Example 207, N,N-dimethyl-3-(2-((1s,4s)-4-methylcyclohexylamino)-5-(4-((R)-tetrahydrofuran-3-yloxy)phenyl)pyrimidin-4-yloxy)azetidine-1-sulfonamide]	+++ (+++=>0.6)	+ (+=<0.1)
COC(=O)N1CCC(Oc2ccc(-c3cnc(NC4CCC(C)CC4)nc3O[C@@H]3CCOC3)cc2)C1 (stereo partly drawn) [Example 103, methyl 3-(4-(2-((1s,4S)-4-methylcyclohexylamino)-4-((R)-tetrahydrofuran-3-yloxy)pyrimidin-5-yl)phenoxy)pyrrolidine-1-carboxylate]	++ (++=0.3-0.6)	+ (+=<0.1)
CC1CCC(Nc2ncc(-c3ccc(O[C@@H]4CCOC4)cc3)c(OC3CCOCC3)n2)CC1 (stereo partly drawn) [Example 93, N-((1s,4s)-4-methylcyclohexyl)-4-(tetrahydro-2H-pyran-4-yloxy)-5-(4-((R)-tetrahydrofuran-3-yloxy)phenyl)pyrimidin-2-amine]	+++ (+++=>0.6)	++ (++=0.1-0.25)
CS(=O)(=O)N1CC(Oc2nc(N[C@H]3CC[C@@H](C)CC3)ncc2-c2ccc(N3CCOCC3)cc2)C1 [Example 59, N-((1s,4s)-4-methylcyclohexyl)-4-(1-(methylsulfonyl)azetidin-3-yloxy)-5-(4-morpholinophenyl)pyrimidin-2-amine]	++ (++=0.3-0.6)	+ (+=<0.1)
Cc1nc(N[C@H]2CC[C@@H](C)CC2)nc(O[C@@H]2CCOC2)c1-c1ccc(N2CCOCC2)cc1 [Example 43, 4-methyl-N-((1s,4S)-4-methylcyclohexyl)-5-(4-morpholinophenyl)-6((R)-tetrahydrofuran-3-yloxy)pyrimidin-2-amine]	++ (++=0.3-0.6)	+ (+=<0.1)
